{
  "source": "patent US20230102836A1",
  "about": "“Amoebicidal Compositions for Contact Lens Solutions” (University of the West of Scotland, priority 2019, published 2023)",
  "key": {"[1]": {"tested_on": "A. castellanii trophozoites", "test": "DNA-agarose gel electrophoresis of gDNA of treated trophozoites", "assay_type": "cell-based, Acanthamoeba castellanii", "settings": "18.75 μg/ml after 96 h", "method": "Genomic deoxynucleic acids (gDNA) from 10^8 A. castellanii trophozoites (treated with and without QAC) were extracted from cells harvested by centrifugation (850×g, 10 min), lysed with UNSET buffer (8M urea, 150 μM NaCl, 2% SDS, […] ethylenediaminetetraacetic acid (EDTA), […] Tris-HCl, pH 7.5) and the DNA extracted with phenol-chloroform (1:1 v/v). The biphasic suspension with DNA enriched on the […] was centrifuged (12,000×g for 15 min, 4° C.) for clear separation and transferred to a new microcentrifuge tube. The DNA was precipitated with cold ethanol (100%, v/v) and 0.3M sodium acetate, washed twice with 70% (v/v) ethanol (12,000×g for 10 min, 4° C.), air dried and resuspended in distilled water."}, "[2]": {"tested_on": "A. castellanii trophozoites", "test": "Combined assay with fixed QAC12 (alamarBlue)", "assay_type": "cell-based, Acanthamoeba castellanii ATCC 50370", "settings": "Acanthamoeba castellanii, 96 h, 96 h at 25° C.", "method": "Acanthamoeba trophozoites (10^5 cells/ml. n=5/treatment) treated with 100 μg/ml doubly diluted to 0.06 μg/ml of QAC18 (a,b) or APC16 (c,d) for 96 h at 25° C. […] Similarly. APC16 alone at the same concentration (closed circle, FIG. 6C, FIG. 6D) in combination with QAC12 at 18.75 μg/ml (open squares, d) QAC12 at […] (open squares, FIG. 6C). Data are mean absorbance at 595 nm t SD; n=4 independent experiments performed in triplicates. IC50s were not statistically significant between QAC12 at both concentrations and QAC16 (p>0.05, FIG. 6A, FIG. 6B) but significant with APC16 (p<0.05, FIG. 6C, FIG. 6D).\nFor the combined assay, similar concentrations of QAC18 and APC16 were prepared and 18.75 μg/ml and 37.5 μg/ml of QAC12 added (to a final volume of 100 μl) were added to 10^5 cells/mi in a 96-well plate and later incubated at 25° C. for a duration determined by the experimental protocol. Resazurin (7-Hydroxy-31-phenoxazin-3-one 10-oxide; 5 mg/ml; McBride J et al (2005) J. Clin. Microbiol.; 43: 629-634) and trypan blue (0.4 μg/ml; Mafra C S P et al (2013) Investig. Ophthalmol. Vis. Si.; 54: 6363-6372) were then added to trophozoites and cysts respectively after being exposed to the compounds and the cell viability estimated microscopically and from changes in absorbance (at 595 nm and 570 nm) respectively."}},
  "note": "Where two headings read alike, the source gives them in different places.",
  "data": [
    {"smiles": "CCCCCCCCCCCCCCCCCC[N+](C)(C)C.[Br-]", "note": "[QAC18, octadecyltrimethyl ammonium bromide]", "values": [
      {"measurement": "Fragmented DNA profile that depicts death via apoptosis", "setting": "[1]", "result": "not observed"},
      {"measurement": "IC50", "setting": "[2]; QAC12 fixed at 18.75 μg/ml, read-out: Estimated IC50 of QAC18 in combination with QAC12", "result": 6.7, "unit": "µg/mL"},
      {"measurement": "IC50", "setting": "[2]; QAC12 fixed at 37.5 μg/ml, read-out: Estimated IC50 of QAC18 in combination with QAC12", "result": 6.9, "unit": "µg/mL"},
      {"measurement": "IC50", "setting": "[2]; without QAC12, read-out: Estimated IC50 of QAC18 alone", "result": 6.1, "unit": "µg/mL"}
    ]}
  ]
}
